According to article PMC8229129, “Local Colonic Administration of a Serine Protease Inhibitor Improves Post-Inflammatory Visceral Hypersensitivity in Rats” (Pharmaceutics, 2021):

Experiments:
[1] = system: visceral hypersensitivity in post-colitis rats; design: method as in PMID 29911328; conditions: TNBS-induced post-inflammatory rats, intraperitoneally; cited from earlier work
[2] = target: chymotrypsin (Bos taurus, UniProt P00766); test: Inhibition of chymotrypsin by UAMC-00050 (IC50); type: biochemical; conditions: in vitro
Experimental: Here, the potency of UAMC-00050 to inhibit two other serine proteases, chymotrypsin and pancreatic elastase, with specificity was determined.

[3] = system: thrombin; design: method as in PMID 29911328; conditions: in vitro; cited from earlier work
[4] = system: trypsin-like, chymotrypsin-like, cathepsin G, elastase-like, and kallikrein activities in colon tissue; test: Proteolytic activities in colonic tissue of control rats after intracolonic administration; type: in vivo, Sprague–Dawley rats; conditions: 5 mg/kg intracolonic
Experimental: The serine protease inhibitor UAMC-00050 (0.1–1.0–2.5–5.0 mg/kg, dissolved in a volume of 200 µL) or its vehicle (5% DMSO in H2O) was delivered colonically using a flexible catheter (18 G, length 4.5 cm) under short-lasting isoflurane anesthesia (5.0% induction, 1.5% maintenance). To prevent expulsion of the enema, animals were held in a Trendelenburg position for 90 s. Doses for intracolonic administration were based on the doses known to be effective via an i.p. administration and adapted afterwards based on preliminary results.
Trypsin-like, chymotrypsin-like, cathepsin G, elastase-like, and kallikrein activities were determined in colon tissue and fecal samples to profile serine protease activity. […]
Boc-Gln-Ala-Arg-AMC (75 µM) and n-Tosyl-Gly-Pro-Arg-AMC (100 µM) in 50 mM Tris-HCl pH 8.0 containing 120 mM NaCl were used to measure the trypsin-like activity. […] The fluorescence was measured during 20 min at 37 °C on a Tecan Infinite F200 Pro microtiter plate reader. The other activities were assessed in a similar assay, using the substrates mentioned below. Chymotrypsin-like and kallikrein activity were measured with Suc-Ala-Ala-Pro-Phe-AMC (0.45 mM) and H-Pro-Phe-Arg-AMC (0.45 mM), respectively. Elastase-like activity was measured using two assays, one using Suc-Ala-Ala-Pro-Val-AMC as a substrate and the other using Suc-Ala-Ala-Ala-AMC (both 0.45 mM). […]

[5] = system: matriptase; design: method as in PMID 29911328; conditions: in vitro; cited from earlier work
[6] = system: colonic mucosal inflammation; test: Colonoscopic inflammatory score; type: in vivo, Sprague–Dawley rats; conditions: for Colonoscopy, Day of VMR: score 0–19, mean ± SEM, n = 8
Experimental: An in vivo colonoscopy was performed to assess the presence and extent of TNBS-induced colitis, as previously described. Briefly, rats were anesthetized (ketamine/xylazine, 35/5 mg/kg, i.p.) and placed in a supine position. The lubricated tip of a pediatric upper gastrointestinal endoscope (Olympus GIF-N30) was carefully introduced into the colorectum and advanced until the hepatic flexure was reached. Then, the endoscope was slowly withdrawn while assessing the mucosal damage using a validated and standardized scoring system (Supplementary Table S1). In brief, a total inflammatory score (0–19) was calculated based on the extent of ulcerations, as well as on the presence of edema, bleeding, and colonic stenosis.

SMILES: CC(=O)Nc1ccc(OP(=O)(Oc2ccc(NC(C)=O)cc2)C(Cc2ccc(N=C(N)N)cc2)NC(=O)OCc2ccccc2)cc1.Cl (centres unmarked) [UAMC-00050]
- Dose required to obtain complete reversal of visceral hypersensitivity [1]: 1.0 mg/kg
- IC50 [2]: > 10 µM
- inhibition of thrombin [3]: efficiently inhibits
- Effect on proteolytic activities in colonic tissue [4]: did not alter
- inhibition of matriptase [5]: efficiently inhibits
- Colonoscopy, Day of VMR ([6]; control rats, 5.0 mg/kg intracolonic): 0.0 ± 0.0
- Colonoscopy, Day of VMR ([6]; post-colitis rats, 0.1 mg/kg intracolonic): 0.0 ± 0.0
- Colonoscopy, Day of VMR ([6]; post-colitis rats, 1.0 mg/kg intracolonic): 0.0 ± 0.0
- Colonoscopy, Day of VMR ([6]; post-colitis rats, 2.5 mg/kg intracolonic): 0.0 ± 0.0
- Colonoscopy, Day of VMR ([6]; post-colitis rats, 5.0 mg/kg intracolonic): 0.0 ± 0.0
- Effect on colonoscopic inflammatory scores ([6]; single intracolonic administration, control and post-colitis rats): no effect
